Consider one molecule from article PMC8003975 (Cancers, 2021).

Each structure is given as a SMILES string. In brackets after ≈: the same amount, converted by molar mass.

One data set deals with Cal27 cells. Nature of the data set: Cytotoxicity assay (Cell Counting Kit-8). The class given is cell-based. Particulars: Homo sapiens, CAL-27, 48 h. From the text:
(§1) Normal oral keratinocytes (NOK) (kindly gifted by Dr. Karl Mugner, Tuffs University, Boston, MA, USA) were maintained in Keratinocyte SFM medium supplemented with EGF and bovine pituitary extract (GIBCO, Life Technologies, Berkeley, MO, USA) and 1% penicillin/ streptomycin. HNC cell line Cal27 was purchased from the ATCC. JHU029 (JHU-29) and JHU022 (JHU-22) cell lines were procured from the Johns Hopkins University (Baltimore, MD, USA). The Cal27 and JHU022 cells were maintained in Dulbecco’s Modified Eagle Medium (DMEM), and JHU029 cells were in RPMI1640 (Sigma, St. Louis, MO, USA) media supplemented with 10% FBS and 1% penicillin/ streptomycin (Sigma-Aldrich, St. Louis, MO, USA) in a humidified CO2 incubator. The cell lines are routinely tested in our laboratory to rule out mycoplasma contamination using a commercial MycoAlert™ Mycoplasma Detection kit (Lonza, Morrisville, NC, USA). Cal27 cells are tongue origin and JHU022 and JHU029 cells are from laryngx origin.
(§2) Cal27, JHU029, JHU022 and NOK were seeded in 96 well-plate (5000 cells/well) and cells were treated with different concentration of M-I for 48 h. There were untreated control and DMSO treated vehicle control group for comparison. Cytotoxicity assay was performed using Cell Counting Kit-8 (Dojindo Molecular Technology, Rockville, MD, USA) according to manufacturer instruction.
(Tetrazolium assays rely on reduction of a dye to a coloured formazan, in cell work by metabolically active cells.)

A further data set has as its system JHU022 cells. Nature of the data set: Cytotoxicity assay (Cell Counting Kit-8). Particulars: Homo sapiens, 48 h. The class given is cell-based.
Description: as §1, §2

A further data set deals with JHU029 cells. Briefly: Cytotoxicity assay (Cell Counting Kit-8). The data set is classed as cell-based. Particulars: Homo sapiens, 48 h.
Description: as §1, §2

For data set [1], the system named is human normal oral keratinocytes (NOK). Briefly: Cytotoxicity assay (Cell Counting Kit-8). The data set is classed as cell-based. Particulars: 48 h.
Description: as §1, §2

The test system of another data set is c-Myc. Briefly: Western blot of treated HNC cells. Particulars: Cal27 and JHU029 cells, 48 hr; 2% BME or 10 µg/mL M-I. The class given is cell-based, human. The procedure: (§3) Figure 3 Momordicine-I inhibits downstream of c-Met signaling in HNC cells. Representative Western blot image for c-Myc, survivin and cyclin D1 expression in Cal27 and JHU029 cells with treatment of BME or M-I. The same membrane used in panel A was reprobed. Actin was used as internal control. Quantitative representation of Western blot band intensities (right panel). Small bar indicates standard error (*** p < 0.001).
(§4) Bitter melon extract (BME) was prepared from the Chinese variety of young bitter melons (raw and green) as described previously. Briefly, BME was prepared by aqueous extraction from whole fruit without seeds using a household juicer at room temperature with subsequent centrifugation at 15000× g at 4 °C for 30 min. BME was stored at −80 °C for further analysis. Cal27 and JHU029 cells were treated with 2% BME and JHU022 cells were treated with 3% BME as described previously. The momordicine-I (>98% pure) was purchased from Chemfaces (Cat. No.: CFN92076; Hubei, China). The powder was dissolved in DMSO and added to the cells at different concentrations. Based on cytotoxicity data, Cal27 and JHU029 cells were treated with 10 µg/mL and JHU022 cells were treated with 20 µg/mL dose of M-I and incubated for 48 hr for further experiments. All the experiments were done at least in triplicate. […]

In another data set the test system is cyclin D1. Nature of the data set: Western blot of treated HNC cells. Particulars: Cal27 and JHU029 cells, 48 hr; 2% BME or 10 µg/mL M-I. The class given is cell-based, human. The procedure:
as §3, §4
(Immunoblotting shows a protein as a band on a membrane.)

The conditions of data set [2]: literature-reported biology of the tentatively identified metabolite; no reference given; cited from earlier work.

For orientation: IC50 means the concentration that gives 50% inhibition. A lower IC50 goes with higher potency. For the molecule `CC(C)=CC(O)CC(C)[C@H]1CC[C@@]2(C)[C@@H]3[C@@H](O)C=C4[C@@H](CC[C@H](O)C4(C)C)[C@]3(C=O)CC[C@]12C` (stereo partly drawn) [M-I, (3S, 7S, 8S, 9R, 10R, 13R, 14S, 17R) 3,7-dihydroxy-17-(4-hydroxy-6-methylhept-5-en-2-yl)-4,4,13,14-tetramethyl-2,3,7,8,10,11, 12,15,16,17-decahydro-1H-cyclopenta[a]phenanthrene-9-carbaldehyde], the IC50 in the data set on Cal27 cells was 7 µg/mL (≈ 14.8 µM); with JHU022 cells, 17 µg/mL (≈ 36 µM); with JHU029 cells, 6.5 µg/mL (≈ 13.8 µM). The “cytotoxic effect on normal oral keratinocytes” value in data set [1] is on record as “minimum effect”. In addition, in the data set with c-Myc, the c-Myc expression result is “significant inhibition”. Also, the “cyclin D1 expression” value in the data set with cyclin D1 was “significant inhibition”. For the same molecule, in data set [2], the “Reported Biology” value is given as “• stimulate insulin secretion in vitro • diabetes-associated cardiac fibrosis”.
